This passage reports Activity and Time results from ChEMBL document CHEMBL3046638, “Synthesis and anticonvulsant activity of novel imidazol5(4H)one and 5-oxo-4,5-dihydroimidazol-1-yl)propanamide derivatives” (Med Chem Res, 2012).

The test system of data set [1] is Mus musculus. Nature of the data set: Anticonvulsant activity in Mus musculus albino (mouse) assessed as protection against maximal electroshock-induced seizures at 100 mg/kg, po after 1 hr relative to phenytoin. It counts as functional.
Data set [2] has as its system Mus musculus. Nature of the data set: Anticonvulsant activity in Mus musculus albino (mouse) assessed as protection against maximal electroshock-induced seizures at 100 mg/kg, po after 1 hr. It is filed as functional.
The test system of data set [3] is Mus musculus. Nature of the data set: Neurotoxicity in Mus musculus albino (mouse) assessed as stability time on rotorod at 100 mg/kg, po after 30 min. It counts as toxicity, organism-based. Details: dose 100 mg/kg, route oral. The settings on record: in vivo, 0.5 h. In general terms: Falling from the rotarod earlier than controls is read as motor impairment.

With `COc1ccc(C(=O)CNN2C(=O)/C(=C/c3ccc(F)cc3F)N=C2c2ccc(F)cc2)cc1`, the Activity with Mus musculus [1] came out at 71.42%. `O=C(CNN1C(=O)/C(=C/c2ccc(F)cc2F)N=C1c1ccc(F)cc1)c1ccc(O)cc1`: the Activity in the data set with Mus musculus [1] turned out to be 57.15%. Consider `CC(C(=O)Nc1ccccc1)N1C(=O)/C(=C/c2ccc(F)cc2F)N=C1c1ccc(F)cc1` (centres undefined), for which the Activity in the data set with Mus musculus [1] is reported as 24.77%; in the data set on Mus musculus [2], -0.94%. For `CC(C(=O)Nc1ccc(C#N)cc1)N1C(=O)/C(=C/c2ccc(F)cc2F)N=C1c1ccc(F)cc1` (centres undefined), the Time with Mus musculus [3] was found to be 285 s. In addition, the Activity in the data set on Mus musculus [1] was determined as 96.42%. `COc1ccc(NC(=O)C(C)N2C(=O)/C(=C/c3ccc(F)cc3F)N=C2c2ccc(F)cc2)cc1` (centres undefined): the Time in the data set with Mus musculus [3] came to 219 s. Also, the Activity with Mus musculus [1] was 96.42%. `O=C(CNN1C(=O)/C(=C/c2ccc(F)cc2F)N=C1c1ccc(F)cc1)c1ccccc1`: the Activity stood at 37.5% in the data set with Mus musculus [1] and 49.96% in the data set on Mus musculus [2].

With `O=C(CNN1C(=O)/C(=C/c2ccc(F)cc2F)N=C1c1ccc(F)cc1)c1ccc([N+](=O)[O-])cc1`, the Activity with Mus musculus [1] was found to be 64.28%. On the same count and under the same terms, with `O=C(CNN1C(=O)/C(=C/c2ccc(F)cc2F)N=C1c1ccc(F)cc1)c1ccc(-c2ccccc2)cc1` the figure was 96.42%.

For `Cc1ccc(C(=O)CNN2C(=O)/C(=C/c3ccc(F)cc3F)N=C2c2ccc(F)cc2)cc1`, the Time with Mus musculus [3] was 174 s. Further, in the data set on Mus musculus [1], the Activity was 92.84%.
